For the data set, the system named is CCRIS mutagenicity, Ames/micronucleus/aberration tests. The experiment in a line: CCRIS mutagenicity studies.
Where [1] appears, read: Test System: AMES SALMONELLA TYPHIMURIUM, Strain/Indicator: TA98, Metabolic Activation: NONE, Method: PREINCUBATION
[2] abbreviates: Test System: AMES SALMONELLA TYPHIMURIUM, Strain/Indicator: TA100, Metabolic Activation: NONE, Method: PREINCUBATION
The mark [3] stands for this setting: Test System: AMES SALMONELLA TYPHIMURIUM, Strain/Indicator: TA1535, Metabolic Activation: NONE, Method: PREINCUBATION

Activity calls are given as the source filed them. No rule for the calls is given here.

For four molecules, mutagenic call results are on record in PubChem BioAssay AID1259407 (Chemical Carcinogenesis Research Information System (CCRIS), 2018).

For the molecule `NCC1CCC(C(=O)c2ccc(CCC(=O)O)cc2)CC1` (stereo unspecified), the mutagenic call runs as follows: (Test System: AMES SALMONELLA TYPHIMURIUM, Strain/Indicator: TA98, Metabolic Activation: NONE, Method: STANDARD PLATE) “inactive; negative”; (Test System: AMES SALMONELLA TYPHIMURIUM, Strain/Indicator: TA98, Metabolic Activation: RAT, LIVER, S-9, AROCLOR 1254, Method: STANDARD PLATE) “inactive; negative”; (Test System: AMES SALMONELLA TYPHIMURIUM, Strain/Indicator: TA100, Metabolic Activation: NONE, Method: STANDARD PLATE) “inactive; negative”; (Test System: AMES SALMONELLA TYPHIMURIUM, Strain/Indicator: TA100, Metabolic Activation: RAT, LIVER, S-9, AROCLOR 1254, Method: STANDARD PLATE) “inactive; negative”; (Test System: AMES SALMONELLA TYPHIMURIUM, Strain/Indicator: TA1535, Metabolic Activation: NONE, Method: STANDARD PLATE) “inactive; negative”; (Test System: AMES SALMONELLA TYPHIMURIUM, Strain/Indicator: TA1535, Metabolic Activation: RAT, LIVER, S-9, AROCLOR 1254, Method: STANDARD PLATE) “inactive; negative”. Further, the mutagenic call is “inactive; negative” (Test System: AMES SALMONELLA TYPHIMURIUM, Strain/Indicator: TA1537, Metabolic Activation: NONE, Method: STANDARD PLATE); “inactive; negative” (Test System: AMES SALMONELLA TYPHIMURIUM, Strain/Indicator: TA1537, Metabolic Activation: RAT, LIVER, S-9, AROCLOR 1254, Method: STANDARD PLATE); “inactive; negative” (Test System: AMES SALMONELLA TYPHIMURIUM, Strain/Indicator: TA1538, Metabolic Activation: NONE, Method: STANDARD PLATE); “inactive; negative” (Test System: AMES SALMONELLA TYPHIMURIUM, Strain/Indicator: TA1538, Metabolic Activation: RAT, LIVER, S-9, AROCLOR 1254, Method: STANDARD PLATE); “inactive; negative” (Test System: E. COLI, Strain/Indicator: WP2 UVRA, Metabolic Activation: NONE, Method: STANDARD PLATE); “inactive; negative” (Test System: E. COLI, Strain/Indicator: WP2 UVRA, Metabolic Activation: RAT, LIVER, S-9, AROCLOR 1254, Method: STANDARD PLATE).

For `CN(N=O)C(=O)Nc1ccc(F)cc1`, for the setting “End Point: IN VITRO CHROMOSOMAL ABERRATIONS, Test System: CHINESE HAMSTER V79-E CELLS, Metabolic Activation: NONE”, the mutagenic call was “active; weakly positive”.

As for `CCCCC(C=O)CC` (stereo unspecified), the mutagenic call was “inactive; negative” (Test System: AMES SALMONELLA TYPHIMURIUM, Strain/Indicator: TA97, Metabolic Activation: HAMSTER, LIVER, S-9, AROCLOR 1254 (10%), Method: PREINCUBATION); “inactive; negative” (Test System: AMES SALMONELLA TYPHIMURIUM, Strain/Indicator: TA97, Metabolic Activation: HAMSTER, LIVER, S-9, AROCLOR 1254 (30%), Method: PREINCUBATION); “inactive; negative” (Test System: AMES SALMONELLA TYPHIMURIUM, Strain/Indicator: TA97, Metabolic Activation: NONE, Method: PREINCUBATION); “inactive; negative” (Test System: AMES SALMONELLA TYPHIMURIUM, Strain/Indicator: TA97, Metabolic Activation: RAT, LIVER, S-9, AROCLOR 1254 (10%), Method: PREINCUBATION); “inactive; negative” (Test System: AMES SALMONELLA TYPHIMURIUM, Strain/Indicator: TA97, Metabolic Activation: RAT, LIVER, S-9, AROCLOR 1254 (30%), Method: PREINCUBATION); “inactive; negative” (Test System: AMES SALMONELLA TYPHIMURIUM, Strain/Indicator: TA98, Metabolic Activation: HAMSTER, LIVER, S-9, AROCLOR 1254 (10%), Method: PREINCUBATION). In addition, the mutagenic call runs as follows: (Test System: AMES SALMONELLA TYPHIMURIUM, Strain/Indicator: TA98, Metabolic Activation: HAMSTER, LIVER, S-9, AROCLOR 1254 (30%), Method: PREINCUBATION) “inactive; negative”; under setting [1], “inactive; negative”; (Test System: AMES SALMONELLA TYPHIMURIUM, Strain/Indicator: TA98, Metabolic Activation: RAT, LIVER, S-9, AROCLOR 1254 (10%), Method: PREINCUBATION) “inactive; negative”; (Test System: AMES SALMONELLA TYPHIMURIUM, Strain/Indicator: TA98, Metabolic Activation: RAT, LIVER, S-9, AROCLOR 1254 (30%), Method: PREINCUBATION) “inactive; negative”; (Test System: AMES SALMONELLA TYPHIMURIUM, Strain/Indicator: TA100, Metabolic Activation: HAMSTER, LIVER, S-9, AROCLOR 1254 (10%), Method: PREINCUBATION) “inactive; negative”; (Test System: AMES SALMONELLA TYPHIMURIUM, Strain/Indicator: TA100, Metabolic Activation: HAMSTER, LIVER, S-9, AROCLOR 1254 (30%), Method: PREINCUBATION) “inactive; negative”. The mutagenic call under setting [2] was “inactive; negative”; the mutagenic call (Test System: AMES SALMONELLA TYPHIMURIUM, Strain/Indicator: TA100, Metabolic Activation: RAT, LIVER, S-9, AROCLOR 1254 (10%), Method: PREINCUBATION) is “inactive; negative”; the mutagenic call (Test System: AMES SALMONELLA TYPHIMURIUM, Strain/Indicator: TA100, Metabolic Activation: RAT, LIVER, S-9, AROCLOR 1254 (30%), Method: PREINCUBATION) was “inactive; negative”; the mutagenic call (Test System: AMES SALMONELLA TYPHIMURIUM, Strain/Indicator: TA1535, Metabolic Activation: HAMSTER, LIVER, S-9, AROCLOR 1254 (10%), Method: PREINCUBATION) is “inactive; negative”; the mutagenic call (Test System: AMES SALMONELLA TYPHIMURIUM, Strain/Indicator: TA1535, Metabolic Activation: HAMSTER, LIVER, S-9, AROCLOR 1254 (30%), Method: PREINCUBATION) was “inactive; negative”; the mutagenic call under setting [3] was “inactive; negative”. Also, the mutagenic call is, setting by setting: (Test System: AMES SALMONELLA TYPHIMURIUM, Strain/Indicator: TA1535, Metabolic Activation: RAT, LIVER, S-9, AROCLOR 1254 (10%), Method: PREINCUBATION) “inactive; negative”; (Test System: AMES SALMONELLA TYPHIMURIUM, Strain/Indicator: TA1535, Metabolic Activation: RAT, LIVER, S-9, AROCLOR 1254 (30%), Method: PREINCUBATION) “inactive; negative”.

For `Cc1cc(-c2ccc(N=C=O)c(C)c2)ccc1N=C=O`, the mutagenic call was “active; positive (structural changes)” (End Point: IN VITRO CHROMOSOMAL ABERRATIONS, Test System: CHL CELLS, Metabolic Activation: RAT, LIVER, S-9, SODIUM PHENOBARBITAL AND 5,6-BENZOFLAVONE); “inactive; negative” under setting [1]; “active; positive” (Test System: AMES SALMONELLA TYPHIMURIUM, Strain/Indicator: TA98, Metabolic Activation: RAT LIVER S-9, PHENOBARBITAL AND BETA-NAPHTHOFLAVONE, Method: PREINCUBATION); “inactive; negative” under setting [2]; “inactive; negative” (Test System: AMES SALMONELLA TYPHIMURIUM, Strain/Indicator: TA100, Metabolic Activation: RAT LIVER S-9, PHENOBARBITAL AND BETA-NAPHTHOFLAVONE, Method: PREINCUBATION); “inactive; negative” under setting [3]. The mutagenic call is “inactive; negative” (Test System: AMES SALMONELLA TYPHIMURIUM, Strain/Indicator: TA1535, Metabolic Activation: RAT LIVER S-9, PHENOBARBITAL AND BETA-NAPHTHOFLAVONE, Method: PREINCUBATION); “inactive; negative” (Test System: AMES SALMONELLA TYPHIMURIUM, Strain/Indicator: TA1537, Metabolic Activation: NONE, Method: PREINCUBATION); “inactive; negative” (Test System: AMES SALMONELLA TYPHIMURIUM, Strain/Indicator: TA1537, Metabolic Activation: RAT LIVER S-9, PHENOBARBITAL AND BETA-NAPHTHOFLAVONE, Method: PREINCUBATION); “inactive; negative” (Test System: AMES SALMONELLA TYPHIMURIUM, Strain/Indicator: TA1538, Metabolic Activation: NONE, Method: PREINCUBATION); “active; positive” (Test System: AMES SALMONELLA TYPHIMURIUM, Strain/Indicator: TA1538, Metabolic Activation: RAT LIVER S-9, PHENOBARBITAL AND BETA-NAPHTHOFLAVONE, Method: PREINCUBATION); “inactive; negative” (Test System: E.COLI, Strain/Indicator: WP2UVRA, Metabolic Activation: NONE, Method: PREINCUBATION). Also, for the setting “Test System: E.COLI, Strain/Indicator: WP2UVRA, Metabolic Activation: RAT LIVER S-9, PHENOBARBITAL AND BETA-NAPHTHOFLAVONE, Method: PREINCUBATION”, the mutagenic call is “inactive; negative”.
